Experimental data as given in patent US11365199B2, “Pyrazole compounds as modulators of FSHR and uses thereof” (Merck Patent GmbH, priority 2013, dated 2022).
Read-outs that look alike come from different tables or passages of the source.

Tests used:
[1] = target: T1, follicle-stimulating hormone (FSH) receptor (Rattus norvegicus, UniProt P20395); test: Rat granulosa EC50 FSH (Assay B); type: cell-based; settings: rat granulosa cells; read-out: Assay B: Rat granulosa EC50 FSH
T1 construct: endogenous in cells; host or cells: primary rat granulosa cells
T1 sequence (P20395 18-692): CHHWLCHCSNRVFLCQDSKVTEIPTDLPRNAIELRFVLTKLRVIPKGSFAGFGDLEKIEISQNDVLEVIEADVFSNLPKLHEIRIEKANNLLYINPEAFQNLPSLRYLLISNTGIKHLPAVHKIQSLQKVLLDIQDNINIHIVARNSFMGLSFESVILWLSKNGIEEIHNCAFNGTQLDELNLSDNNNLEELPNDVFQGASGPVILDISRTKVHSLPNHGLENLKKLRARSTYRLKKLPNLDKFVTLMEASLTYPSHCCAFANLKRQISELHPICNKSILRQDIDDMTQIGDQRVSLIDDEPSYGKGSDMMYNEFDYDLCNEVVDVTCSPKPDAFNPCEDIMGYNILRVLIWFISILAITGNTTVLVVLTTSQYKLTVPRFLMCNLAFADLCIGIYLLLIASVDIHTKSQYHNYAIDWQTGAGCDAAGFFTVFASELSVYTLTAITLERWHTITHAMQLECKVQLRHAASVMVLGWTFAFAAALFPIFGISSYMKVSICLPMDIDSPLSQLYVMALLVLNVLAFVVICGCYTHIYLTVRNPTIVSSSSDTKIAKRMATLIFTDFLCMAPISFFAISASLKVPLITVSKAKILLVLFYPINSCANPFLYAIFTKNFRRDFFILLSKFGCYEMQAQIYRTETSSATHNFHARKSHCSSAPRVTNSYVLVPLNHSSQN
Method: Rat Granulosa EC50 FSH (Assay B)
The assay was performed pursuant to the teaching of Yanofsky et al. (2006) Allosteric activation of the follicle-stimulating hormone (FSH) receptor by selective, nonpeptide agonists (JBC 281(19): 13226-13233, which is incorporated by reference in the disclosure of the invention).

FSHR = target: T2, FSHR (Homo sapiens, UniProt P23945); test: EC50 of cyclic AMP production in CHO FSHR cells + EC20 FSH (Assay A); type: cell-based
T2 construct: expressed in transfected cells; host or cells: CHO (Cho-FSHR-LUC-1-1-43)
T2 sequence (P23945 18-695): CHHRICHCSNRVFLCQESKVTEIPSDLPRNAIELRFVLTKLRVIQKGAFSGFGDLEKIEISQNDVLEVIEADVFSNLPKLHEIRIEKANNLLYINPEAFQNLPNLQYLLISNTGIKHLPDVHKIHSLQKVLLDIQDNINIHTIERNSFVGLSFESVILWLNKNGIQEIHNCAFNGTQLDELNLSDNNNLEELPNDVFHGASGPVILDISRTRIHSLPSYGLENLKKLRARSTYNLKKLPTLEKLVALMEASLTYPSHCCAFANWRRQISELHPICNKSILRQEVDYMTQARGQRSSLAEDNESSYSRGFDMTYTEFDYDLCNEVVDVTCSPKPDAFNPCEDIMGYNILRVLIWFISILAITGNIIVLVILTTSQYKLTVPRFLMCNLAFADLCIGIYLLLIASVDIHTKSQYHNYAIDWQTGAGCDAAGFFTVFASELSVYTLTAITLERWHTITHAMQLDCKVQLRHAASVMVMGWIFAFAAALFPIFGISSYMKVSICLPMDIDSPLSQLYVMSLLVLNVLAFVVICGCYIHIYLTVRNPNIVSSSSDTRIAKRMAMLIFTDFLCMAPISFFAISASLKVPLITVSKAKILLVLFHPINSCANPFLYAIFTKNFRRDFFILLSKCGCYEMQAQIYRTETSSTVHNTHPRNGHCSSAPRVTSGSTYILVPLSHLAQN
In short: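 Cho-FSHR-LUC cells were exposed to compound dilution series with EC20 FSH ([…]) and 200 μM IBMX for 1 h at 37° C. cAMP was read by HTRF (665/620 nm ratio). Effects are percent of the maximal FSH standard response.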

[2] = CHO FSHR cells + EC20 FSH, cAMP HTRF, read-out: Assay A: EC50 of cyclic AMP production

| Structure (SMILES) | EC50 [1] [µM] | EC50 (FSHR; [2]) [µM] | EC50 (FSHR) [µM] |
| --- | --- | --- | --- |
| COc1cc2c(cc1C1CCCO1)-c1c(c(C(=O)N(C)C(C)(C)C)nn1-c1ccsc1)CO2 (stereo not shown) [Compound 201, 7-Methoxy-8-(tetrahydro-furan-2-yl)-1-thiophen-3-yl-1,4-dihydro-chromeno[4,3-c]pyrazole-3-carboxylic Acid tert-butyl-methyl-amide] | 1 to 5 | 0.1 to 1 |  |
| COc1cc2c(cc1-c1ccn(C)c1)-c1c(c(C(=O)NC3(CCO)COC3)nn1-c1ccsc1)CO2 [Compound 186, 7-Methoxy-8-(1-methyl-1H-pyrrol-3-yl)-1-thiophen-3-yl-1,4-dihydro-chromeno[4,3-c]pyrazole-3-carboxylic acid [3-(2-hydroxy-ethyl)-oxetan-3-yl]-amide] | 0.1 to 1 | < 0.1 |  |
| [2H]C([2H])([2H])N(CCN1CCOC1=O)C(=O)c1nn(-c2ccsc2)c2c1COc1cc(OC)c(CC(C)C)cc1-2 [Compound 214] | 1 to 5 | < 0.1 |  |
| COc1cc2c(cc1-c1ccn(C)c1)-c1c(c(C(=O)N3CCOCC3(C)C)nn1-c1ccsc1)CO2 [Compound 98, (3,3-Dimethyl-morpholin-4-yl)-[7-methoxy-8-(1-methyl-1H-pyrrol-3-yl)-1-thiophen-3-yl-1,4-dihydro-chromeno[4,3-c]pyrazol-3-yl]-methanone] | 1 to 5 | < 0.1 |  |
| [2H]C([2H])([2H])OC1(CN(C(=O)c2nn(-c3ccsc3)c3c2COc2cc(OC)c(-c4ccn(C)n4)cc2-3)C([2H])([2H])[2H])COC1 [Compound 167] | 0.1 to 1 | 0.1 to 1 |  |
| [2H]C([2H])([2H])N(C(=O)c1nn(-c2ccsc2)c2c1COc1cc(OC)c(-c3ccn(C)c3)cc1-2)C1(C)COC1 [Compound 115] | 0.1 to 1 | < 0.1 |  |
| COc1cc2c(cc1-c1ccn(C)c1)-c1c(c(C(=O)O[C@H]3CC[C@H](N)C3)nn1-c1ccsc1)CO2 [Compound 181, 7-Methoxy-8-(1-methyl-1H-pyrrol-3-yl)-1-thiophen-3-yl-1,4-dihydro-chromeno[4,3-c]pyrazole-3-carboxylic Acid (1S,3S)-3-amino-cyclopentyl Ester] |  | < 0.1 |  |
| [2H]C([2H])([2H])C(C(=O)c1nn(-c2ccsc2)c2c1COc1cc(OC)c(-c3ccn(C)n3)cc1-2)C1(C)CNC1 (stereo not shown) [Compound 193] |  | > 5 |  |
| COc1cc2c(cc1-c1cnn(CC(C)C)c1)-c1c(c(C(=O)N3CCOCC3(C)C)nn1-c1ccsc1)CO2 [Compound 192, (3,3-Dimethyl-morpholin-4-yl)-[8-(1-isobutyl-1H-pyrazol-4-yl)-7-methoxy-1-thiophen-3-yl-1,4-dihydro-chromeno[4,3-c]pyrazol-3-yl]-methanone] |  | < 0.1 |  |
| COc1cc2c(cc1C=C(C)C)-c1c(c(C(=O)N3CCC(O)C3)nn1-c1ccsc1)CO2 (stereo not shown) [Compound 47, (3-Hydroxy-pyrrolidin-1-yl)-[7-methoxy-8-(2-methyl-propenyl)-1-thiophen-3-yl-1,4-dihydro-chromeno[4,3-c]pyrazol-3-yl]-methanone] |  | 1 to 5 |  |
| COc1cc2c(cc1-c1cncnc1)-c1c(c(C(=O)N(C)C(C)(C)C)nn1-c1ccsc1)CO2 [Compound 70, 7-Methoxy-8-pyrimidin-5-yl-1-thiophen-3-yl-1,4-dihydro-chromeno[4,3-c]pyrazole-3-carboxylic acid tert-butyl-methyl-amide] |  | < 0.1 |  |
| [2H]C([2H])([2H])N(CCNC(C)=O)C(=O)c1nn(-c2ccsc2)c2c1COc1cc(OC)c(C=C(C)C)cc1-2 [Compound 87] |  | 0.1 to 1 |  |
| COc1cc2c(cc1-c1cncn1C)-c1c(c(C(=O)N(C)C(C)(C)C)nn1-c1ccsc1)CO2 [Compound 130, 7-Methoxy-8-(3-methyl-3H-imidazol-4-yl)-1-thiophen-3-yl-1,4-dihydro-chromeno[4,3-c]pyrazole-3-carboxylic acid tert-butyl-methyl-amide] |  | < 0.1 |  |
| COc1cc2c(cc1S(=O)(=O)C(C)C)-c1c(c(C(=O)N3CCOCC3(C)C)nn1-c1ccsc1)CO2 [Compound 112, (3,3-Dimethyl-morpholin-4-yl)-[7-methoxy-8-(propane-2-sulfonyl)-1-thiophen-3-yl-1,4-dihydro-chromeno[4,3-c]pyrazol-3-yl]-methanone] |  | 1 to 5 |  |
| COCC(C)(C)N(C)C(=O)c1nn(-c2ccsc2)c2c1COc1cc(OC)c(C=C(C)C)cc1-2 [Compound 31] |  |  | < 0.1 |
| COc1cc2c(cc1C=C(C)C)-c1c(c(C(=O)N3CCCC3(C)CO)nn1-c1ccsc1)CO2 (stereo not shown) [Compound 48, (2-Hydroxymethyl-2-methyl-pyrrolidin-1-yl)-[7-methoxy-8-(2-methyl-propenyl)-1-thiophen-3-yl-1,4-dihydro-chromeno[4,3-c]pyrazol-3-yl]-methanone] |  | < 0.1 |  |
| COc1cc2c(cc1-c1ccnn1C)-c1c(c(C(=O)NC3(C)COC3)nn1-c1ccsc1)CO2 [Compound 109, 7-Methoxy-8-(2-methyl-2H-pyrazol-3-yl)-1-thiophen-3-yl-1,4-dihydro-chromeno[4,3-c]pyrazole-3-carboxylic acid (3-methyl-oxetan-3-yl)-amide] |  | 0.1 to 1 |  |
| COc1cc2c(cc1C=C(C)C)-c1c(c(C(=O)N3CCCC(NC(=O)C4CCC4)CC3)nn1-c1ccsc1)CO2 (stereo not shown) [Compound 37, Cyclobutanecarboxylic acid {1-[7-methoxy-8-(2-methyl-propenyl)-1-thiophen-3-yl-1,4-dihydro-chromeno[4,3-c]pyrazole-3-carbonyl]-azepan-4-yl}-amide] |  | 1 to 5 |  |
| COc1cc2c(cc1OC(C)C)-c1c(c(C(=O)N(C)CCCN(C)C(=O)C3CCC3)nn1-c1ccsc1)CO2 [Compound 30] |  | 0.1 to 1 |  |
| COc1cc2c(cc1-c1ccn(C)c1)-c1c(c(C(=O)NC(C)(CO)CO)nn1-c1ccsc1)CO2 [Compound 179, 7-methoxy-8-(1-methyl-1H-pyrrol-3-yl)-1-thiophen-3-yl-1,4-dihydro-chromeno[4,3-c]pyrazole-3-carboxylic acid (2-hydroxy-1-hydroxymethyl-1-methyl-ethyl)-amide] |  | 0.1 to 1 |  |
| COc1ccc2c(c1)OCc1c(C(=O)N(C)C(C)(C)C)nn(-c3ccsc3)c1-2 [Compound 133, 7-Methoxy-1-thiophen-3-yl-1,4-dihydro-chromeno[4,3-c]pyrazole-3-carboxylic Acid tert-butyl-methyl-amide] |  |  | 1 to 5 |
| COc1cc2c(cc1C=C(C)C)-c1c(c(C(=O)N3CCCC(N)CC3)nn1-c1ccsc1)CO2 (stereo not shown) [Compound 36, (4-Amino-azepan-1-yl)-[7-methoxy-8-(2-methyl-propenyl)-1-thiophen-3-yl-1,4-dihydro-chromeno[4,3-c]pyrazol-3-yl]-methanone] |  | 0.1 to 1 |  |
| COc1cc2c(cc1CC(C)C)-c1c(c(C(=O)NC3(C)COC3)nn1-c1ccsc1)CO2 [Compound 145, 8-Isobutyl-7-methoxy-1-thiophen-3-yl-1,4-dihydro-chromeno[4,3-c]pyrazole-3-carboxylic acid (3-methyl-oxetan-3-yl)-amide] |  | 0.1 to 1 |  |
| COc1cc2c(cc1-c1c(C)noc1C)-c1c(c(C(=O)N(C)C(C)(C)C)nn1-c1ccsc1)CO2 [Compound 67, 8-(3,5-Dimethyl-isoxazol-4-yl)-7-methoxy-1-thiophen-3-yl-1,4-dihydro-chromeno[4,3-c]pyrazole-3-carboxylic acid tert-butyl-methyl-amide] |  | < 0.1 |  |
| COc1cc2c(cc1-c1ccnn1C)-c1c(c(C(=O)N(C)C(C)(C)C)nn1-c1ccsc1)CO2 [Compound 64, 7-Methoxy-8-(2-methyl-2H-pyrazol-3-yl)-1-thiophen-3-yl-1,4-dihydro-chromeno[4,3-c]pyrazole-3-carboxylic acid tert-butyl-methyl-amide] |  | < 0.1 |  |
